Like-named read-outs stand apart in the source and are kept apart here. Where a SMILES comes first, the peptide text is derived from it. Bridges are numbered along the chain shown (N, C = ends). [ ]: non-standard residue; d: D form. The star is where a group is joined. X1 = CC[C@H](C)CCCCC(=O)*; Dab = NCC[C@H](N)C(=O)O
Tests used:
Acinetobacter baumannii = conditions: animal thigh and lung infection models; cited from earlier work
Klebsiella pneumoniae = conditions: in vitro experiments, typical plasma maximum concentrations; cited from earlier work
[1] = Colistin pharmacokinetics in epithelial lining fluid (ELF) after nebulized CMS in ventilated VARI patients; assay type: in vivo, human; conditions: 2 mIU CMS inhaled; for AUC0–8 h: ELF (mini-BAL, urea-corrected), no systemic CMS, HPLC-fluorescence; for AUC0–8 h / Volume of distribution/ fraction of dose absorbed / Clearance/fraction of dose absorbed / Cmax: NCA; for AUC0–8 h / Volume of distribution/ fraction of dose absorbed / Clearance/fraction of dose absorbed / Cmax / AUC0–24 / Cmin / Tmax / level at 1 h / level at 4 h / level at 6 h / level at 8 h: median (IQR); for Ccolistin over 2 mg/L, frequency of patients / Ccolistin over 4 mg/L, frequency of patients / Volume of distribution/ fraction of dose absorbed / Clearance/fraction of dose absorbed / Cmax / AUC0–24 / Cmin / Tmax / level at 1 h / level at 4 h / level at 6 h / level at 8 h: ELF; for Volume of distribution/ fraction of dose absorbed: dose/(λ × AUCinf); for Clearance/fraction of dose absorbed: dose/AUCinf; for AUC0–24: calculated as AUCinf × 3 (thrice daily), total colistin; for level at 1 h / level at 4 h / level at 6 h / level at 8 h / Kp: human, inhaled or intranasal, 2 mIU; for level at 1 h / level at 4 h / level at 6 h / level at 8 h: epithelial lining fluid (ELF), read-out: Ccolistin,ELF; for level at 1 h: 1 h post-nebulization; for level at 4 h: 4 h post-nebulization; for level at 6 h: 6 h post-nebulization; for level at 8 h: 8 h post-nebulization; for Kp: epithelial lining fluid (ELF)/plasma, ELF/plasma mean concentration ratio, mean (SD), SD
Description: The study population consisted of 24 critically ill adult patients, admitted to the intensive care unit of the First Department of Pulmonology of the National and Kapodistrian University of Athens between June 2014 and November 2017. All patients were intubated and mechanically ventilated, and received inhaled CMS as part of their treatment for VAP or VAT caused by Gram-negative pathogens. Subjects were studied around the first dose of nebulized treatment, which always preceded intravenous treatment, to avoid confounding by colistin (or CMS) reaching the ELF via the systemic circulation. We excluded patients that received a dose different to the institution’s standard of 2 million international units (mIU) (~160 mg) of CMS and patients who were planned to receive intravenous colistin within 8 h of nebulization initiation.
A dose of 2 mIU of CMS (Colistin®, Norma Hellas, Athens, Greece), corresponding to approximately 160 mg CMS or 68 mg colistin-base activity, was nebulized over a 10–30 min period via either VMN (Aeroneb Solo with Aeroneb Pro controller, Aerogen, Galway, Ireland) or generic JN. This was not a randomized trial, and the nebulizer selection was exclusively a matter of availability of VMN consumables in the ICU at the time. The intended dose was dissolved in 4 mL of normal saline 0.9%. The nebulizer was placed at the inspiratory limb of the ventilator circuit, at 15 cm from the Y-piece, and the heat and moisture exchanger was removed. During nebulization, the patients were sedated and ventilated using assist volume controlled mode, with tidal volume set at 8 mL/kg of ideal body weight, a constant squared-wave inspiratory flow, a positive end expiratory pressure (PEEP) of less than or equal to 10 cm H2O, an inspiratory to expiratory time ratio equal to 1, an inspiratory pause of 10%, and a respiratory rate set at 15/min [31].
[…] The catheter was inserted through the endotracheal tube. The lavage was performed with instillation of 2 syringes of 20 mL sterile normal saline at room temperature through the catheter. The aspirate from the first syringe was considered representative of bronchial washing and was, therefore, discarded. The aspirate from the second syringe was collected and centrifuged in frigid centrifuge (3500× g for 10 min at 4 °C) immediately (<2 min) to avoid falsely elevated levels of urea in BAL [34] and CMS hydrolysis to formed colistin. The supernatant liquid was stored in plastic micro test tubes (Safe-lock; Eppendorf AG; Hamburg, Germany) and frozen at –80 °C, until analysis.
Colistin concentrations in plasma (Ccolistin,plasma) and epithelial lining fluid (Ccolistin,ELF) were measured through high performance liquid chromatography (HPLC)-fluorescence analysis.
The samples were rapidly centrifuged, and plasma and BAL supernatant were separated and kept frozen (−80 °C) before analysis, as previously described. An HPLC-RF assay was used for colistin concentration measurements in plasma and BAL fluid samples, based on the method of Li et al., as modified by Markou et al. and Ratjen et al.. Briefly, netilmicin was used as the internal standard and the method consisted of a protein precipitation step with trifluoracetic acid (TFA), followed by colistin derivatization with 9-fluorenylmethyl chloroformate on a solid phase extraction C18 cartridge. The eluted fluid was dried under vacuum and the solid residue was reconstituted in mobile phase for subsequent reversed-phase HPLC with fluorescence detection (excitation: 260 nm; emission: 316 nm). The analytical column was a Phenomenex Luna C18, 3 μm, 50 mm × 3 mm with 100 Å particle size, while the mobile phase consisted of ACN/THF/H2O (80/7.7/12.3%) with a flow rate of 0.5 mL/min. The injection volume was 20 μL. The method was linear at a concentration range of 0.10–4.8 mg/L (R^2 = 0.999). […]

[2] = piglets, cited from earlier work
Description: Nevertheless, in a piglet model of ventilated P. aeruginosa inoculation pneumonia, Lu et al. observed a serum maximum colistin concentration of 1.6 ± 1.4 mg/L after VMN aerosolization of 0.1 mIU/kg of CMS [28]. […] Post-nebulization colistin tissue levels have never been measured in humans; if the results abov ...

For CC[C@H](C)CCCCC(=O)N[C@@H](CCN)C(=O)N[C@H](C(=O)N[C@@H](CCN)C(=O)N[C@H]1CCNC(=O)[C@H]([C@@H](C)O)NC(=O)[C@H](CCN)NC(=O)[C@H](CCN)NC(=O)[C@H](CC(C)C)NC(=O)[C@@H](CC(C)C)NC(=O)[C@H](CCN)NC1=O)[C@@H](C)O [colistin] (X1-[Dab]T[Dab][Dab][Dab][dL]L[Dab][Dab]T; lactam 4-C), the “fAUC/MIC predicting 1-log killing” value (Acinetobacter baumannii) is given as 7–42, the “fAUC/MIC linked to 2-log killing” value (Klebsiella pneumoniae) is given as 25 and the “AUC0–8 h” value ([1]; JN, n = 6) is given as 30.5 (26.0–36.8) mg/L∙h. For the same molecule, the “AUC0–8 h” value ([1]; VMN, n = 18) was 28.7 (15.1–68.1) mg/L∙h, the “Ccolistin over 2 mg/L, frequency of patients” value (“Ccolistin over 2 mg/L” for short) ([1]; 60 min, JN, n = 6) was 16.7% and the “Ccolistin over 4 mg/L, frequency of patients” value (“Ccolistin over 4 mg/L” below) ([1]; 60 min, JN, n = 6) was 16.7%. The “Ccolistin over 2 mg/L” value ([1]; 240 min, JN, n = 6) was 100%, the “Ccolistin over 4 mg/L” value ([1]; 240 min, JN, n = 6) was 83.3% and the “Ccolistin over 2 mg/L” value ([1]; 240 min, VMN, n = 18) was 50%. The “Ccolistin over 4 mg/L” value ([1]; 240 min, VMN, n = 18) was 27.8%, the “Ccolistin over 2 mg/L” value ([1]; 360 min, JN, n = 6) was 83.3% and the “Ccolistin over 4 mg/L” value ([1]; 360 min, JN, n = 6) was 33.3%. The “Ccolistin over 2 mg/L” value ([1]; 360 min, VMN, n = 18) was 88.9%, the “Ccolistin over 4 mg/L” value ([1]; 360 min, VMN, n = 18) was 83.3% and the “Ccolistin over 2 mg/L” value ([1]; 480 min, JN, n = 6) was 0%. The “Ccolistin over 4 mg/L” value ([1]; 480 min, JN, n = 6) was 0%, the “Ccolistin over 2 mg/L” value ([1]; 480 min, VMN, n = 18) was 41.2% and the “Ccolistin over 4 mg/L” value ([1]; 480 min, VMN, n = 18) was 17.6%. For the same molecule, the “Volume of distribution/ fraction of dose absorbed” value ([1]; JN, n = 6) was 4.5 (3.5–5.1) L, the “Clearance/fraction of dose absorbed” value ([1]; JN, n = 6) was 1.8 (1.5–2.1) L/h and the Cmax ([1]; JN, n = 6) was 7.4 (6.2–10.3) mg/L. For the same molecule, the “AUC0–24” value ([1]; JN, n = 6) was 91.5 (78.1–110.3) mg/L∙h, the Cmin ([1]; JN, n = 6) was 1.1 (0.9–1.2) mg/L and the Tmax ([1]; JN, n = 6) was 4.3 (3.5–4.3) h. For the same molecule, the “Volume of distribution/ fraction of dose absorbed” value ([1]; VMN, n = 18) was 1.7 (0.8–5.2) L, the “Clearance/fraction of dose absorbed” value ([1]; VMN, n = 18) was 1.4 (0.8–3.6) L/h and the Cmax ([1]; VMN, n = 18) was 10.4 (4.7–22.6) mg/L. The “AUC0–24” value ([1]; VMN, n = 18) was 86.2 (46.0–185.9) mg/L∙h, the Cmin ([1]; VMN, n = 18) was 0.4 (0.1–0.8) mg/L and the Tmax ([1]; VMN, n = 18) was 6.5 (6.3–6.6) h. For the same molecule, the level at 1 h ([1]; JN, n = 6) was 1200 ng/mL, the level at 1 h ([1]; VMN, n = 18) was 700 ng/mL and the level at 4 h ([1]; JN, n = 6) was 6420 ng/mL. For the same molecule, the level at 4 h ([1]; VMN, n = 18) was 2100 ng/mL, the level at 6 h ([1]; JN, n = 6) was 3300 ng/mL and the level at 6 h ([1]; VMN, n = 18) was 8600 ng/mL. For the same molecule, the level at 8 h ([1]; JN, n = 6) was 1300 ng/mL, the level at 8 h ([1]; VMN, n = 18) was 1420 ng/mL and the Kp ([1]; JN, n = 6) was 4.8. The Kp ([1]; VMN, n = 18) was 5.5, the “median peak lung tissue concentration” value ([2]; 1 h after the third inhaled dose, upon sacrifice) was 2.8 µg/g and the “serum maximum colistin concentration” value ([2]; VMN aerosolization of 0.1 mIU/kg of CMS, ref 28 (Lu et al.)) was 1.6 ± 1.4 mg/L.

Reference: article PMC9686516, “Pharmacokinetic Characteristics of Nebulized Colistimethate Sodium Using Two Different Types of Nebulizers in Critically Ill Patients with Ventilator-Associated Respiratory Infections” (Antibiotics, 2022)
